Data as given in patent US6355799B1, “Substituted benzene compounds, process for their preparation, and herbicidal and defoliant compositions containing them” (ISK Americas Incorporated, priority 1997, dated 2002).

Tests used:
Format in all cases: in vivo
[1] = system: field corn (Zea mays L., var. Dekalb 535, CORN); assay: Post-emerge test, crop safety; settings: post-emerge, 14 days after application, rating scale 0-100
How it was run: (§1)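 Visual ratings on a 0-100 scale (0 no damage, 100 all plants dead) were taken at 14 days after treatment. Rates of 15-1000 g ai/ha in acetone, 187 l/ha, were sprayed onto soil one day after planting (pre-emerge) or onto 2-3 leaf plants with 0.25% v/v surfactant (post-emerge).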

[2] = system: upland rice (Oryza sp., var. Tebonnet, RICE); assay: Post-emerge test, crop safety; settings: post-emerge, 14 days after application, rating scale 0-100
How it was run: as §1

[3] = system: field corn (Zea mays L., var. Dekalb 535, CORN); assay: Pre-emerge test, crop safety; settings: pre-emerge, 14 days after application, scale 0-100
How it was run: (§2)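 Compounds in acetone were track-sprayed at 15-1000 g ai/ha (187 l/ha) on sandy loam pots: pre-emerge one day after seeding, post-emerge at 2-3 leaf stage with 0.25% v/v non-ionic surfactant. Phytotoxicity was rated 14 days later on a 0 (no damage) to 100 (complete death) scale.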

[4] = system: upland rice (Oryza sp., var. Tebonnet, RICE); assay: Pre-emerge test, crop safety; settings: pre-emerge, 14 days after application, scale 0-100
How it was run: as §2

[5] = system: redroot pigweed (Amaranthus retroflexus, AMARE); assay: Pre-emerge test, greenhouse herbicide activity screening; settings: pre-emerge, 14 days after application, scale 0-100
How it was run: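 Sandy loam pots; pre-emerge: sown 1 d pre-spray, surface-watered after, then bottom-watered. Post-emerge: sown 8–21 d before, 2–3 leaf stage, + 0.25% v/v NIS, bottom-watered. Acetone, 187 l/ha track spray, 15–1000 g ai/ha. 0–100 injury score, day 14.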

[6] = system: large crabgrass (Digitaria sanguinalis, DIGSA); assay: Post-emerge test, greenhouse herbicide activity screening; settings: post-emerge, 14 days after application, rating scale 0-100
How it was run: (§3)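 Fourteen days after spraying, crop and weed injury was graded visually from 0, no effect, to 100, every plant dead. Test substances were dissolved in acetone and applied at 15–1000 g ai/ha with a flat-fan nozzle. Application was either pre-emergence, one day after sowing, or post-emergence at the 2–3 leaf stage.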

[7] = system: sicklepod (Cassia obtusifolia, CASOB); assay: as above; settings: post-emerge, 14 days after application, rating scale 0-100
How it was run: as §3

[8] = system: common ragweed (Ambrosia artemisizfolia L., AMBEL); assay: as above; settings: post-emerge, 14 days after application, rating scale 0-100
How it was run: as §3

[9] = system: green foxtail (Setaria viridis, SETVI); assay: as above; settings: post-emerge, 14 days after application, rating scale 0-100
How it was run: as §3

[10] = system: barnyardgrass (Echinochloa crus-galli, ECHCG); assay: as above; settings: post-emerge, 14 days after application, rating scale 0-100
How it was run: as §3

[11] = system: ivyleaf morningglory (Ipomoea hederacea, IPOHE); assay: as above; settings: post-emerge, 14 days after application, rating scale 0-100
How it was run: as §3

[12] = system: velvetleaf (Abutilon theophrasti, ABUTH); assay: as above; settings: post-emerge, 14 days after application, rating scale 0-100
How it was run: as §3

[13] = system: lambsquarters (Chenopodium album, CHEAL); assay: as above; settings: post-emerge, 14 days after application, rating scale 0-100
How it was run: as §3

[14] = system: johnsongrass (Sorghum halepense, SORHA); assay: as above; settings: post-emerge, 14 days after application, rating scale 0-100
How it was run: as §3

[15] = system: redroot pigweed (Amaranthus retroflexus, AMARE); assay: as above; settings: post-emerge, 14 days after application, rating scale 0-100
How it was run: as §3

[16] = system: large crabgrass (Digitaria sanguinalis, DIGSA); assay: Pre-emerge test, greenhouse herbicide activity screening; settings: pre-emerge, 14 days after application, scale 0-100
How it was run: as §1

[17] = system: sicklepod (Cassia obtusifolia, CASOB); assay: as above; settings: pre-emerge, 14 days after application, scale 0-100
How it was run: as §1

[18] = system: green foxtail (Setaria viridis, SETVI); assay: as above; settings: pre-emerge, 14 days after application, scale 0-100
How it was run: as §1

[19] = system: barnyardgrass (Echinochloa crus-galli, ECHCG); assay: as above; settings: pre-emerge, 14 days after application, scale 0-100
How it was run: as §1

[20] = system: ivyleaf morningglory (Ipomoea hederacea, IPOHE); assay: as above; settings: pre-emerge, 14 days after application, scale 0-100
How it was run: as §1

[21] = system: velvetleaf (Abutilon theophrasti, ABUTH); assay: as above; settings: pre-emerge, 14 days after application, scale 0-100
How it was run: as §1

[22] = system: lambsquarters (Chenopodium album, CHEAL); assay: as above; settings: pre-emerge, 14 days after application, scale 0-100
How it was run: as §1

[23] = system: johnsongrass (Sorghum halepense, SORHA); assay: as above; settings: pre-emerge, 14 days after application, scale 0-100
How it was run: as §1

For `COc1c(Cl)cc(F)c(-n2c(=O)cc(C(F)(F)F)n(C)c2=O)c1NC(=O)CSC(C)C` [2-173], the “CORN phytotoxicity rating (crop damage)” value ([1]; 63 g ai/ha) was 0, the “CORN phytotoxicity rating (crop damage)” value ([1]; 250 g ai/ha) was 25 and the “RICE phytotoxicity rating (crop damage)” value ([2]; 63 g ai/ha) was 0. For the same molecule, the “RICE phytotoxicity rating (crop damage)” value ([2]; 250 g ai/ha) was 10, the “phytotoxicity rating CORN (crop damage)” value ([3]; 63 g ai/ha) was 0 and the “phytotoxicity rating CORN (crop damage)” value ([3]; 250 g ai/ha) was 20. For the same molecule, the “phytotoxicity rating RICE (crop damage)” value ([4]; 63 g ai/ha) was 0, the “phytotoxicity rating RICE (crop damage)” value ([4]; 250 g ai/ha) was 50 and the “phytotoxicity rating AMARE” value ([5]; 63 g ai/ha) was 30. For the same molecule, the “phytotoxicity rating AMARE” value ([5]; 250 g ai/ha) was 100, the DIGSA phytotoxicity rating ([6]; 63 g ai/ha) was 0 and the DIGSA phytotoxicity rating ([6]; 250 g ai/ha) was 0. The CASOB phytotoxicity rating ([7]; 63 g ai/ha) was 50, the CASOB phytotoxicity rating ([7]; 250 g ai/ha) was 70 and the AMBEL phytotoxicity rating ([8]; 63 g ai/ha) was 30. It also gave an AMBEL phytotoxicity rating ([8]; 250 g ai/ha) of 50, an SETVI phytotoxicity rating ([9]; 63 g ai/ha) of 0 and an SETVI phytotoxicity rating ([9]; 250 g ai/ha) of 0. For the same molecule, the ECHCG phytotoxicity rating ([10]; 63 g ai/ha) was 0, the ECHCG phytotoxicity rating ([10]; 250 g ai/ha) was 0 and the IPOHE phytotoxicity rating ([11]; 63 g ai/ha) was 100. For the same molecule, the IPOHE phytotoxicity rating ([11]; 250 g ai/ha) was 80, the ABUTH phytotoxicity rating ([12]; 63 g ai/ha) was 60 and the ABUTH phytotoxicity rating ([12]; 250 g ai/ha) was 100. It also gave a CHEAL phytotoxicity rating ([13]; 63 g ai/ha) of 40, a CHEAL phytotoxicity rating ([13]; 250 g ai/ha) of 65 and an SORHA phytotoxicity rating ([14]; 63 g ai/ha) of 0. For the same molecule, the SORHA phytotoxicity rating ([14]; 250 g ai/ha) was 0, the AMARE phytotoxicity rating ([15]; 63 g ai/ha) was 50 and the AMARE phytotoxicity rating ([15]; 250 g ai/ha) was 50. For the same molecule, the “phytotoxicity rating DIGSA” value ([16]; 63 g ai/ha) was 30, the “phytotoxicity rating DIGSA” value ([16]; 250 g ai/ha) was 80 and the “phytotoxicity rating CASOB” value ([17]; 63 g ai/ha) was 30. For the same molecule, the “phytotoxicity rating CASOB” value ([17]; 250 g ai/ha) was 70, the “phytotoxicity rating SETVI” value ([18]; 63 g ai/ha) was 40 and the “phytotoxicity rating SETVI” value ([18]; 250 g ai/ha) was 80. The “phytotoxicity rating ECHCG” value ([19]; 63 g ai/ha) was 0, the “phytotoxicity rating ECHCG” value ([19]; 250 g ai/ha) was 20 and the “phytotoxicity rating IPOHE” value ([20]; 63 g ai/ha) was 0. The “phytotoxicity rating IPOHE” value ([20]; 250 g ai/ha) was 40, the “phytotoxicity rating ABUTH” value ([21]; 63 g ai/ha) was 95 and the “phytotoxicity rating ABUTH” value ([21]; 250 g ai/ha) was 100. For the same molecule, the “phytotoxicity rating CHEAL” value ([22]; 63 g ai/ha) was 90, the “phytotoxicity rating CHEAL” value ([22]; 250 g ai/ha) was 100 and the “phytotoxicity rating SORHA” value ([23]; 63 g ai/ha) was 0. The “phytotoxicity rating SORHA” value ([23]; 250 g ai/ha) was 10.
